Patent publication US8461305B2, “L-fucose α1→6 specific lectin” (J-Oil Mills, Inc., priority 2008, dated 2013)

Tests used:
[1] = hemagglutinating inhibition test with sugars (sugar binding specificity); type: cell-based
Description: The sugar binding specificity of lectin also can be confirmed by using erythrocytes that can be specifically agglutinated by the lectin to investigate the sugar type that may inhibit the agglutination of the erythrocytes and the concentration thereof.
Various monosaccharides, oligosaccharides, and polysaccharides shown in Table 2 and glycoproteins shown in Table 3 were subjected to hemagglutinating inhibition test to evaluate PTL of Example 1 and the SRL of Example 2 with regard to the sugar binding specificity.
On a 96 well U-bottom microtiter plate, double dilution series of 10 μl of monosaccharide, oligosaccharide, polysaccharide, and glycoprotein solutions were prepared. Then, lectin solution adjusted in advance to have titer 4 was added in an amount of 10 μl to the respective wells. Then, the plate was subjected to a still-standing at a room temperature for one hour for sensitization. Then, 10 μl of 4%-red blood cell suspension was added to the respective wells and the plate was further subjected to a still-standing at a room temperature for one hour. […] The lowest concentration showing the inhibition was assumed as the minimum inhibition concentration. The lower the minimum inhibition concentration is, the higher the specificity to lectin is.
For comparison, the sugar binding specificity was evaluated using the following commercially-available lectins: Comparison Example 1: AAL (SEIKAGAKU BIOBUSINESS CORPORATION—J-OIL MILLS, Inc.), Comparison Example 2: AOL (TOKYO CHEMICAL INDUSTRY CO., LTD.—Gekkeikan Sake Company, Ltd.), Comparison Example 3: LCA (SEIKAGAKU BIOBUSINESS CORPORATION—J-OIL MILLS, Inc.), and Comparison Example 4: PSA (SEIKAGAKU BIOBUSINESS CORPORATION—J-OIL MILLS, Inc.).

[2] = frontal affinity chromatography (FAC), association constant to PA sugar chains having other L-fucose; type: binding; settings: for association constant Ka: 25 degrees C.
Experimental: The following section will describe a method of calculating an association constant by frontal affinity chromatography (FAC). This method is based on the following principle. […] Then, the elution front end (front) is observed immediately. When there is an affinity with lectin, the elution of the sugar chain is delayed.
The preparation of a lectin column used in the apparatus is performed in the method as described below. 1. Purified lectin is dissolved in 0.1 to 0.2M of NaHCO3 buffer solution (pH 8.3 to 8.5). 2. The lectin is immobilized, via a lectin primary amino group, a carrier such as NHS activated sepharose. 3. Then, the lectin is blocked by Tris buffer solution including primary amine or ethanolamine for example. 4. Lectin-sepharose is suspended in 10 mM Tris buffer, including 0.8% of NaCl (pH 7.4, TBS). Then, lectin immobilized resin is filled in a miniature column (φ2 mm×10 mm, 31.4 μl). 5. The miniature column in which the lectin immobilized resin is filled is protected by a holder and the lectin column is connected to an FAC automatic analysis apparatus (FAC-1, SHIMADZU CORPORATION).
Then, the elution of the PA sugar chain from the column is detected by a fluorescence detector (excitation wavelength/fluorescence wavelength: 310 nm/380 nm).
Based on the detection data, by using the elution front end (Vo) of the sugar chain (PA rhamnose) not interacting with lectin as a reference, the delay (V−Vo) of the elution front end (V) of a sugar chain interacting with lectin is calculated as an interaction strength. Then, based on the following FAC criteria expressions, the association constant (Ka) between the sugar chain and lectin is calculated based on V−Vo and Bt. If the interaction strength (V−Vo value) and the association constant are higher, a higher affinity is caused between lectin and an L-fucose α1→6 sugar chain.
[In the formula, A means substance used for the elution, Ao means the initial concentration of the substance A, B means a immobilized ligand, V means the elution volume, Vo means the elution front end volume of the substance not interacting with the immobilized ligand B at all, Bt means an effective ligand amount, Kd means a dissociation constant (an inverse of the association constant)].
Pyridylaminated (PA) sugar chains shown in FIG. 1 and FIG. 2 were used to frontal affinity chromatography (FAC) analysis. PA sugars were purchased from TAKARA BIO INC., SEIKAGAKU BIOBUSINESS CORPORATION, and Masuda Chemical Industries co., LTD. PA sugar were also obtained by pyridylaminating, by GlycoTAG®(TAKARA BIO INC.), an unlabeled sugar chain or a sugar chain obtained by subjecting a sugar chain to enzyme digestion for example.
Lectin was dissolved in 0.2 M NaHCO3 buffer solution (pH 8.3) including 0.5 M NaCl and coupled to the NHS-activated sepharose (GE Healthcare Bioscience) by following the manufacturer's instructions. Then, lectin immobilized sepharose was suspended in 10 mM Tris buffer (pH 7.4, TBS) including […] and the resultant matter was filled in a miniature column (φ2 mm×10 mm, 31.4 μl).
Frontal affinity chromatography was performed using FAC automatic analysis apparatus (FAC-1, SHIMADZU CORPORATION). In particular, the above-prepared lectin column was inserted to a stainless steel holder and the holder was connected to FAC-1 apparatus. The flow rate and the column temperature were maintained at 0.125 ml/min and 25 degrees C., respectively. After the miniature column was equilibrated by the TBS, an excessive volume (0.5 ml to 4 ml) of a PA sugar chain (3.75 nM or 7.5 nM) was continuously inputted to the column using an automatic sampling apparatus.
The fluorescent strength of the eluate of the PA sugar (excitation wavelength of 310 nm and fluorescence wavelength of 380 nm) was monitored to measure the interaction strength [a difference of the front end eluate to the standard oligosaccharide (PA rhamnose): V−V0]. […]

[3] = inhibitor: N-Acetylneuraminic acid
[4] = inhibitor: N-acetylgalactosamine
[5] = inhibitor: N-glycolylneuraminic acid
[6] = Sugar chain No. 728 (as listed in Table 5/12)

| Substance | minimum inhibition concentration of hemagglutination ([1]; inhibitor: Fructose) [mM] | minimum inhibition concentration of hemagglutination ([1]; inhibitor: Galactose) [mM] | minimum inhibition concentration of hemagglutination ([1]; inhibitor: Glucose) [mM] | minimum inhibition concentration of hemagglutination ([1]; inhibitor: L-fucose) [mM] | minimum inhibition concentration of hemagglutination ([1]; inhibitor: Lactose) [mM] | minimum inhibition concentration of hemagglutination ([1]; inhibitor: Maltose) [mM] | minimum inhibition concentration of hemagglutination ([1]; inhibitor: Mannose) [mM] | minimum inhibition concentration of hemagglutination ([1]; inhibitor: Melibiose) [mM] | minimum inhibition concentration of hemagglutination ([1]; inhibitor: Metyl α-mannoside) [mM] | minimum inhibition concentration of hemagglutination [1, 3] [mM] | minimum inhibition concentration of hemagglutination [1, 4] [mM] | minimum inhibition concentration of hemagglutination ([1]; inhibitor: N-acetylglucosamine) [mM] | minimum inhibition concentration of hemagglutination [1, 5] [mM] | minimum inhibition concentration of hemagglutination ([1]; inhibitor: Raffinose) [mM] | minimum inhibition concentration of hemagglutination ([1]; inhibitor: Rhamnose) [mM] | minimum inhibition concentration of hemagglutination ([1]; inhibitor: Serial lactose) [mM] | minimum inhibition concentration of hemagglutination ([1]; inhibitor: Sucrose) [mM] | minimum inhibition concentration of hemagglutination ([1]; inhibitor: Xylose) [mM] | association constant Ka ([2]; Sugar chain No. 419) [M⁻¹] | association constant Ka ([2]; Sugar chain No. 420) [M⁻¹] | further results |
| --- | --- | --- | --- | --- | --- | --- | --- | --- | --- | --- | --- | --- | --- | --- | --- | --- | --- | --- | --- | --- | --- |
| Aspergillus oryzae lectin [AOL, reference compound] | 25 | >100 | >100 | 0.391 | >6 | >100 | 100 | >100 | >100 | >100 | >100 | >100 | >100 | >100 | 100 | >6 | >100 | >100 | <1000 | <1000 | association constant Ka ([2]; Sugar chain No. 718): 170000 M⁻¹; association constant Ka ([2]; Sugar chain No. 719): <1000 M⁻¹; association constant Ka ([2]; Sugar chain No. 720): <1000 M⁻¹; association constant Ka ([2]; Sugar chain No. 721): <1000 M⁻¹; association constant Ka ([2]; Sugar chain No. 722): 56000 M⁻¹; association constant Ka ([2]; Sugar chain No. 723): <1000 M⁻¹; association constant Ka ([2]; Sugar chain No. 726): <1000 M⁻¹; association constant Ka ([2]; Sugar chain No. 727): 76000 M⁻¹; association constant Ka [2, 6]: 12000 M⁻¹; association constant Ka ([2]; Sugar chain No. 729): <1000 M⁻¹; association constant Ka ([2]; Sugar chain No. 730): <1000 M⁻¹; association constant Ka ([2]; Sugar chain No. 731): <1000 M⁻¹; association constant Ka ([2]; Sugar chain No. 739): <1000 M⁻¹; association constant Ka ([2]; Sugar chain No. 909): 44000 M⁻¹; association constant Ka ([2]; Sugar chain No. 910): 56000 M⁻¹; association constant Ka ([2]; Sugar chain No. 931): 99000 M⁻¹; association constant Ka ([2]; Sugar chain No. 932): <1000 M⁻¹; association constant Ka ([2]; Sugar chain No. 933): 31000 M⁻¹ |
| Pholiota terrestris lectin [PTL, novel L-fucose α1→6 specific lectin purified from the mushroom Pholiota terrestris] | >100 | >100 | >100 | >100 | >6 | >100 | >100 | >100 | >100 | >100 | >100 | >100 | >100 | >100 | >100 | >6 | >100 | >100 | <1000 | <1000 | binding to non-L-fucose α1→6 sugar chain ([2]; FAC): not bound; association constant Ka ([2]; Sugar chain No. 718): <1000 M⁻¹; association constant Ka ([2]; Sugar chain No. 719): <1000 M⁻¹; association constant Ka ([2]; Sugar chain No. 720): <1000 M⁻¹; association constant Ka ([2]; Sugar chain No. 721): <1000 M⁻¹; association constant Ka ([2]; Sugar chain No. 722): <1000 M⁻¹; association constant Ka ([2]; Sugar chain No. 723): <1000 M⁻¹; association constant Ka ([2]; Sugar chain No. 726): <1000 M⁻¹; association constant Ka ([2]; Sugar chain No. 727): <1000 M⁻¹; association constant Ka [2, 6]: <1000 M⁻¹; association constant Ka ([2]; Sugar chain No. 729): <1000 M⁻¹; association constant Ka ([2]; Sugar chain No. 730): <1000 M⁻¹; association constant Ka ([2]; Sugar chain No. 731): <1000 M⁻¹; association constant Ka ([2]; Sugar chain No. 739): <1000 M⁻¹; association constant Ka ([2]; Sugar chain No. 909): <1000 M⁻¹; association constant Ka ([2]; Sugar chain No. 910): <1000 M⁻¹; association constant Ka ([2]; Sugar chain No. 931): <1000 M⁻¹; association constant Ka ([2]; Sugar chain No. 932): <1000 M⁻¹; association constant Ka ([2]; Sugar chain No. 933): <1000 M⁻¹ |
